{
  "source": "patent US9133434B1",
  "about": "“Grass endophyte” (Cropmark Seeds Ltd., priority 2012, dated 2015)",
  "key": {"[1]": {"system": "Neotyphodium uncinatum, var. U2", "assay": "Colony: resistance to benomyl on growth (PDA plates with benomyl)", "format": "cell-based", "conditions": "benomyl 1, 5, 10, 50 and 100 ppm in PDA, recorded after 4 weeks; scale absent or very weak / weak / medium / strong / very strong", "protocol": "Neotyphodium uncinatum, var. U2 was isolated from line FP102 of Festuca pratensis (Meadow fescue). Line FP102 originally came from Norway in 1999. Characteristics for Neotyphodium uncinatum, var. U2 were determined and compared with other varieties. For these tests, the endophytic fungus isolated was cultured on 1.5% (w/v) potato dextrose agar at 20° C. in the dark (Christensen M J, Latch G C M, Tapper S A 1991: Variation within isolates of Acremonium endophytes from perennial ryegrasses. Mycol. Res. 95: 918-923). Length of cultivation was generally standardized at 4 weeks, but may be varied according to the isolate. Five plates of each strain were grown.\n(§1) Plates of PDA containing different concentrations of the fungicide benomyl were prepared as outlined by Christensen et al. (1991). Benlate(Methyl[1-[(butylamino)carbonyl]-1H-benzimidazol-2-yl]carbamate) (50% WP) was added to PDA prior to sterilization. Concentrations of benomyl were adjusted to 1, 5, 10, 50 and 100 ppm. Five duplicate plates were inoculated with a colony plug."}, "[2]": {"system": "Neotyphodium uncinatum, var.UNC1", "assay": "Effect of benomyl on growth, comparison of varieties", "format": "cell-based", "conditions": "comparison of the two varieties", "protocol": "as §1\nThe two varieties were similar in tested characteristics of colony sporulation, colony sectoring, colony color (upper surface), colony shape, colony immersion or margin in agar, colony texture, aerial mycelium density and type, and effect of benomyl on growth. The two varieties differed in […] and rate of growth."}},
  "data": [
    {"smiles": "CCCCNC(=O)n1c(NC(=O)OC)nc2ccccc21", "note": "[benomyl, Methyl[1-[(butylamino)carbonyl]-1H-benzimidazol-2-yl]carbamate]", "values": [
      {"measurement": "Colony: resistance to benomyl on growth", "setting": "[1]", "result": "strong"},
      {"measurement": "effect of benomyl on growth, var.UNC1 compared with var. U2", "setting": "[2]", "result": "similar"}
    ]}
  ]
}
